Experimental data: patent US20260000670A1 (priority 2022, published 2026)

Test system: C57B1/6 mice
Assay: anti-AAV8 IgM and IgG titers (ELISA on empty AAV8 capsids) after rAAV8 administration in mice
Format: in vivo
Description: FIG. 1. rAAV8 readministration in mice and Dasatinib treatment. C57B1/6 mice were intravenously dosed on study day 1 with a rAAV8 encoding the hSEAP (human secreted alkaline phosphatase) at the dose of 1E12 vg/kg. On study day 22, they received a second rAAV8 encoding hFIX (human Factor IX) at the dose of 5E13 vg/kg. […] Group 2 (immunized mice, n=10) received both rAAV8 injections. Group 3 mice (n=10) received the two rAAV8 injections and were treated by oral gavage with 50 mg/kg dasatinib twice per day for 7 days starting on the day of first rAAV8 dosing. Blood samples were collected one day before and every 7 days after the first rAAV8 treatment.
(§1) FIGS. 2A-2C. Effects of dasatinib treatment on anti-AAV8 IgM titers. Serum was isolated from blood collected on study days 0, 8, 15, 21, 29 and 36 (FIG. 1) and anti-AA V8 IgM measured by ELISA, performed on immobilized empty AAV8 capsids. IgM antibody titers were determined by ELISA OD values of serial dilutions (1:10 and 7-step serial dilution 1:3). For the determination of mean background level, readouts were pooled from all mouse groups at day 0. The positivity threshold is represented by the dotted line. The kinetics of anti-AAV8 IgM antibody titers is shown for each mouse group (FIGS. 2A-2C). The empty circles represent titers under the threshold, and crossed circles represent titers above the threshold.
as §1, with “FIGS. 3A-3C.” for “FIGS. 2A-2C.”, “anti-AAV8 IgG” for “anti-AAV8 IgM”, “and anti-AAV8 IgG” for “and anti-AA V8 IgM”, “capsids. IgG” for “capsids. IgM”, “of anti-AA V8 IgG” for “of anti-AAV8 IgM”, “(FIGS. 3A-3C).” for “(FIGS. 2A-2C).”
To assess whether dasatinib could efficiently prevent anti-AAV antibody formation after rAAV administration and allow efficient re-administration of rAAV, a study was conducted in mice (FIG. 1). Groups of C57B1/6 mice were intravenously dosed with a first rAAV8 encoding hSEAP (human secreted alkaline phosphatase, under control of a CMV promoter) at the dose of 1E12vg/kg on study day 1. On study day 22, they were dosed with a second rAAV8 encoding hFIX (human Factor IX, under control of a CMV promoter) at the dose of 5E13 vg/kg. […] Group 3 mice were treated with Dasatinib at the dose of 50 mg/kg by oral gavage twice per day for 7 days, starting on the day of first rAAV8 dosing. […]

Cc1nc(Nc2ncc(C(=O)Nc3c(C)cccc3Cl)s2)cc(N2CCN(CCO)CC2)n1 [dasatinib, N-(2-chloro-6-methylphenyl)-2-[[6-[4-(2-hydroxyethyl)-1-piperazinyl]-2-methyl-4-pyrimidinyl]amino]-5-thiazole carboxamide monohydrate]
anti-AAV8 IgG titers compared with immunized control Group 2 (Group 3, 50 mg/kg oral gavage twice per day for 7 days): drastically reduced
anti-AAV8 IgM in serum versus positivity threshold (Group 3, 50 mg/kg oral gavage twice per day for 7 days from first rAAV8 dosing, until administration of second rAAV8 (day 22)): remained underthe IgM positivity threshold
mice above the anti-AAV8 IgG positivity threshold (Group 3, study day 21, 50 mg/kg oral twice per day for 7 days): 4/10
anti-AAV8 IgG titers after rAAV8 re-administration (day 36, two weeks after rAAV8 re-administration): comparable in all mouse groups
